# Measurements published in US8501806B2, “Methods for preventing or reducing colon carcinogenesis” (Nogra Pharma Limited, priority 2008, dated 2013).
# How the values were obtained:
# [1] = system: established CT26-derived tumors; test: Growth of established CT26 xenografts; type: in vivo, Balb/c mice; conditions: subcutaneously 80 mg/kg mouse/day for 2 weeks from day 14
# Experimental: CT26 cells (1×10^5 cells in 300 μl PBS 1×) were injected subcutaneously into the flank of Balb/c mice, whose fur was shaved and depilated. Five groups of 10 mice each were implanted with CT26. The first group received daily subcutaneously 300 μl PBS (control), the remaining groups received daily subcutaneously compound 14 at a final dose of 1, 4, 8, or 12 mg/kg/mouse dissolved in 300 μl PBS. Both compound 14 and PBS were administered starting on day 3. Further experimentation was performed to assess whether compound 14 had anti-cancer activity when administered systemically. […] Mice were monitored over the time for weight loss. After 2 weeks, mice were sacrificed, tumors were photographed, then excised and their mass calculated according to the following formula: ½×(short diameter)×(long diameter)×(height). Total extracts were prepared from xenografts and analyzed for cyclin D1 protein content by Western blotting using a commercially available antibody (Santa Cruz Biotechnology). […] After 2 weeks, mice with similar tumor size, determined by caliper measurements, were divided into three groups of 8 mice each. […] Mice were monitored over the time for weight loss. After 2 weeks, mice were sacrificed, tumors were photographed, then excised and their mass calculated as described above. […] Mice were monitored over the time and sacrificed at day 28.
# HCT-116 cells = test: CFSE cell proliferation assay, HCT-116 cells; type: cell-based, human; conditions: equivalent concentrations; data not shown
# Experimental: All reagents used in Examples 1-3 were from Sigma-Aldrich (Milan, Italy) unless specified. Compounds were dissolved as a 25 mM stock solution in culture medium, and the pH of the solution was adjusted to 7.4, if necessary, with NaOH. The human CRC cell lines, HCT-116 and HT-29 (expressing either wild-type or mutated p53 respectively), were maintained in McCoy's 5A supplemented with 10% fetal bovine serum (FBS), 1% penicillin/streptomycin, and 50 μg/ml gentamycin. The murine CRC cell line, CT26, was maintained in RPMI 1640 medium supplemented with 10% FBS and 1% penicillin/streptomycin.
# For cell growth assays, serum-starved HCT-116, HT-29, and CT26 cells were plated in appropriate complete medium at 2×10^5 cells/ml/well in 6-well culture dishes and allowed to adhere overnight. Cells were then labeled with carboxyfluorescein diacetate succinimidyl ester (CFSE) (Invitrogen, Milan Italy) at 37° C. according to the manufacturer's instruction. After 30 minutes, the medium was removed and fresh media containing 0.05% bovine serum albumin (BSA), and increasing doses of 5-ASA or disclosed compounds were added. After 24 hours, cells were collected, washed twice with PBS 1×, and then incubated with 5 μg/ml of PI for 15 minutes, at 4° C. in the dark. CFSE and/or PI-positive cells were determined by flow cytometry (Becton Dickinson, FACSCalibur, Milan, Italy). To determine whether the negative effect of compound 14 (2-methoxy-5-amino-N-hydroxybenzamide) on proliferation was reversible, cells were cultured in the presence or absence of compound 14 (1.5 and 3 mM) for 24 hours (1st culture). Afterwards, cells were either left untreated or extensively washed and cultured with medium in the absence of compound 14 for additional 24 hours (2nd culture). The percentage of proliferating cells was then evaluated by flow cytometry.
SMILES,tumor size of established CT26-derived tumors vs PBS [1],effect on cell proliferation (osmotic control) (HCT-116 cells)
"Nc1ccc(O)c(C(=O)O)c1 [5-ASA, 5-amino salicylic acid, reference compound]",not 5-ASA significantly reduced,
"OC[C@@H](O)[C@@H](O)[C@H](O)[C@H](O)CO [mannitol, reference compound]",,No effect
